Laboratory results as given in US20070093455A1, “10-substituted tetracyclines and methods of use thereof” (priority 2005, published 2007).
Converted amounts (≈) assume the structure as drawn.

Tests used:
[1] = test system: S. aureus RN4250; test: In vitro MIC assay, S. aureus RN4250; format: cell-based; settings: Staphylococcus aureus, broth microdilution, 35° C., 18-24 hours
[2] = test system: E. coli translation; test: In vitro translation assay for inhibition of bacterial protein synthesis (E. coli S30 Extract System, luciferase); format: biochemical; settings: 37° C., 1 hour, luciferase luminescence
Protocol: As a further measure of antibacterial activity, an E. coli S30 Extract System was used to quantitate inhibition of E. coli translation by tetracycline derivatives. This system contained all required components for translation, including a nucleic acid template which, when translated, produces functional luciferase. The reactions were set up with E. coli S30 extract, amino acids, DNA template and selected tetracycline compounds at concentrations of 100, 50, 25, 10, 5, and 1 μg/ml. The reactions were incubated at 37° C. for 1 hour and analyzed by adding the reaction mix to Steady-Glo Luciferase Assay substrate (Promega, Madison Wis.). Luminescence was measured with the Wallac Victor5 plate reader and inhibition is calculated by comparing luciferase activity in experimental reactions versus controls.

[3] = test system: P. aeruginosa K1033; test: In vitro MIC assay, P. aeruginosa K1033; format: cell-based; settings: Pseudomonas aeruginosa, broth microdilution, 35° C., 18-24 hours
[4] = test system: S. aureus RN450; test: In vitro MIC assay, S. aureus RN450; format: cell-based; settings: Staphylococcus aureus, broth microdilution, 35° C., 18-24 hours
[5] = test system: E. coli (ATCC 25922); test: In vitro MIC assay, E. coli (ATCC 25922); format: cell-based; settings: Escherichia coli, ATCC25922; broth microdilution, 35° C., 18-24 hours
[6] = test system: E. coli MG 1655 DWAK; test: In vitro MIC assay, E. coli MG 1655 DWAK; format: cell-based; settings: Escherichia coli, MG1655DWAK; broth microdilution, 35° C., 18-24 hours
Protocol: The following assay was used to determine the efficacy of tetracycline compounds against common bacteria. Serial dilutions of compounds were prepared in microdilution plates using a Tecan robotic workstation. Mueller Hinton broth cultures of gram negative and gram positive strains were grown or adjusted to match the turbidity of a 0.5 McFarland standard. 1:200 dilutions were made in appropriate broth (cation supplemented Mueller Hinton broth or Haemophilus test medium) to allow a final inoculum of 1×10^5 cfu. Lysed horse blood was used to supplement broth for testing S. pneumoniae. The plates were incubated at 35° C. in ambient air for 18-24 hours, read spectrophotometrically, and checked manually for evidence of bacterial growth. Serial dilutions of compounds were also added to Brucella agar supplemented with laked sheep blood for P. acnes tests. A standard inoculum was transferred to the plate using a stainless steel replicator. After 48 hours of anaerobic incubation at 35° C. plates were examined. The MIC was defined as the lowest concentration of the tetracycline compound that inhibits growth. Table 3 gives the MIC (μg/mL) of selected substituted tetracycline compounds against a variety of gram positive and gram negative bacteria.

[7] = test system: S. aureus MRSA5; test: In vitro MIC assay, S. aureus MRSA5; format: cell-based; settings: Staphylococcus aureus, broth microdilution, 35° C., 18-24 hours
[8] = test system: Mouse 3T3 fibroblast cells; test: Phototoxicity assay (neutral red); format: cell-based; settings: 3T3 cells; for phototoxicity at 30 μM, incubated in the UV light: UV light 1.6-1.8 mW/cm^2, 30 μM
Protocol: Mouse 3T3 fibroblast cells were harvested and plated at a concentration of 1×10^5 cells/mL. Drug dilutions were made in HBSS and added to the plates. Duplicate plates were then incubated in the dark (for controls), or under UV light (meter reading of 1.6-1.8 mW/cm^2) for 50 minutes. Cells were then washed with HBSS, fresh medium was added, and plates were then incubated overnight. The following day, neutral red was added as an indicator of cell viability and plates were incubated for an additional 3 hours. Cells were then washed with HBSS and a solution of 50% EtOH, 10% glacial acetic acid is added. After a 20 minute incubation period, plates absorbance at 535 nm were read using a Wallac Victor 5 spectrophotometer. The phototoxicity in light-treated and control cultures was then compared.

[9] = test system: S. pneumoniae 157E; test: In vitro MIC assay, S. pneumoniae 157E; format: cell-based; settings: Streptococcus pneumoniae, broth supplemented with lysed horse blood, 35° C., 18-24 hours
[10] = test system: COS-1 or CHO cell; test: Mammalian cell cytotoxicity assay (Resazurin; Alamar Blue); format: cell-based; settings: COS-1 or CHO cells, 24 hour incubation
Protocol: To predict the in vivo risks associated with the compounds of the invention, a soluble, non-toxic redox dye (“Resazurin”; Alamar Blue) was used to assess a compound's effect on cellular metabolism. COS-1 or CHO cell suspensions were prepared, seeded into 96-well black-walled microtiter plates, and incubated overnight at 37° C., in 5% CO2 and approximately 95% humidity. On the next day, serial dilutions of test drug were prepared and transferred to cell plates. Following a 24 hour incubation period, the media/drug was aspirated, and 50 μL of resazurin was added. After a 2 hour incubation, fluorescence measurements were taken (excitation […], emission 590 nm) and toxic effects in treated versus control cells were compared based on the degree of fluorescence in each well.

[11] = test system: H. influenza (ATCC 49247); test: In vitro MIC assay, H. influenza (ATCC 49247); format: cell-based; settings: read-out: MIC H. influenza (ATCC 49247)
[12] = test system: P. acnes (PBS 1074); test: In vitro MIC assay, P. acnes (PBS 1074); format: cell-based; settings: Cutibacterium acnes; Brucella agar with laked sheep blood, 48 hours anaerobic, 35° C.
[13] = test system: P. acnes (ATCC 11827); test: In vitro MIC assay, P. acnes (ATCC 11827); format: cell-based; settings: Cutibacterium acnes, ATCC11827; Brucella agar with laked sheep blood, 48 hours anaerobic, 35° C.
[14] = test system: P. acnes (ATCC 6919); test: In vitro MIC assay, P. acnes (ATCC 6919); format: cell-based; settings: Cutibacterium acnes, ATCC6919; Brucella agar with laked sheep blood, 48 hours anaerobic, 35° C.
[15] = test system: P. acnes (PBS 1073); test: In vitro MIC assay, P. acnes (PBS 1073); format: cell-based; settings: Cutibacterium acnes; Brucella agar with laked sheep blood, 48 hours anaerobic, 35° C.
[16] = test system: B. theraiotaomicron (ATCC 29741); test: In vitro MIC assay, B. theraiotaomicron (ATCC 29741); format: cell-based
[17] = test system: P. acnes (ATCC 1077); test: In vitro MIC assay, P. acnes (ATCC 1077); format: cell-based; settings: Cutibacterium acnes, ATCC1077; Brucella agar with laked sheep blood, 48 hours anaerobic, 35° C.
[18] = test system: B. fragilis (ATCC 25285); test: In vitro MIC assay, B. fragilis (ATCC 25285); format: cell-based; settings: Bacteroides fragilis, ATCC25285

| SMILES | MIC [1] [µg/mL] | IC20 [2] [µM] | IC50 [2] [µM] | MIC [3] [µg/mL] | MIC [4] [µg/mL] | MIC [5] [µg/mL] | MIC [6] [µg/mL] | MIC [7] [µg/mL] | phototoxicity at 30 μM, incubated in the UV light [8] | phototoxicity at 150 μM, incubated in the dark [8] | MIC [9] [µg/mL] | cytotoxicity at 75 μg/mL [10] | MIC [11] [µg/mL] | MIC [12] [µg/mL] | MIC [13] [µg/mL] | MIC [14] [µg/mL] | MIC [15] [µg/mL] | MIC [16] [µg/mL] | MIC [17] [µg/mL] | MIC [18] [µg/mL] |
| --- | --- | --- | --- | --- | --- | --- | --- | --- | --- | --- | --- | --- | --- | --- | --- | --- | --- | --- | --- | --- |
| CN(C)c1cc(C(=O)O)cc2c1CC1CC3[C@@H](N(C)C)C(O)=C(C(N)=O)C(=O)[C@@]3(O)C(O)=C1C2=O (stereo partly shown) [G] | 44 to 64 (≈ 90.6 to 132 µM) | < 100 | < 100 | 44 to 64 (≈ 90.6 to 132 µM) | 44 to 64 (≈ 90.6 to 132 µM) | 44 to 64 (≈ 90.6 to 132 µM) | 44 to 64 (≈ 90.6 to 132 µM) | 44 to 64 (≈ 90.6 to 132 µM) | minimally phototoxic | not to be appreciably phototoxic | 44 to 64 (≈ 90.6 to 132 µM) | minimal cytotoxicity | 44 to 64 (≈ 90.6 to 132 µM) |  |  |  |  |  |  |  |
| CN(C)c1cccc2c1CC1CC3CC(O)=C(C(N)=O)C(=O)[C@@]3(O)C(O)=C1C2=O (stereo partly shown) [E] | 0 to 21 | > 100 | < 100 | 0 to 21 | 0 to 21 | 44 to 64 (≈ 110 to 161 µM) | 0 to 21 | 0 to 21 |  | not to be appreciably phototoxic | 44 to 64 (≈ 110 to 161 µM) |  | 22 to 43 (≈ 55.2 to 108 µM) |  |  |  |  |  |  |  |
| CN(C)c1cc2c(c3c1CC1CC4[C@H](N(C)C)C(O)=C(C(N)=O)C(=O)[C@@]4(O)C(O)=C1C3=O)OC(=O)N(CC(C)(C)C)C2 (stereo partly shown) [P] | 44 to 64 (≈ 75.5 to 110 µM) |  |  |  | 44 to 64 (≈ 75.5 to 110 µM) |  |  | 44 to 64 (≈ 75.5 to 110 µM) | minimally phototoxic |  | 44 to 64 (≈ 75.5 to 110 µM) | minimal cytotoxicity | 44 to 64 (≈ 75.5 to 110 µM) |  |  |  |  |  |  |  |
| CC1CCN(c2cccc3c2C(=O)C2=C(O)[C@]4(O)C(=O)C(C(N)=O)=C(O)[C@@H](N(C)C)C4CC2C3)CC1 (stereo partly shown) [M] | 44 to 64 (≈ 88.8 to 129 µM) | < 100 | < 100 | 0 to 21 | 44 to 64 (≈ 88.8 to 129 µM) | 44 to 64 (≈ 88.8 to 129 µM) | 0 to 21 | 44 to 64 (≈ 88.8 to 129 µM) | minimally phototoxic | not to be appreciably phototoxic | 22 to 43 (≈ 44.4 to 86.8 µM) | minimal cytotoxicity | 0 to 21 |  |  |  |  |  |  |  |
| CC1CCN(Cc2cccc3c2CC2CC4[C@@H](N(C)C)C(O)=C(C(N)=O)C(=O)[C@@]4(O)C(O)=C2C3=O)CC1 (stereo partly shown) [K] | 0 to 21 |  |  | 0 to 21 | 0 to 21 | 0 to 21 | 0 to 21 | 0 to 21 |  |  | 0 to 21 | minimal cytotoxicity | 0 to 21 | 28 to 32 (≈ 54.9 to 62.8 µM) | 0 to 8 | 0 to 8 | 28 to 32 (≈ 54.9 to 62.8 µM) | 28 to 32 (≈ 54.9 to 62.8 µM) | 28 to 32 (≈ 54.9 to 62.8 µM) | 0 to 8 |
| CN(C)[C@@H]1C(O)=C(C(N)=O)C(=O)[C@@]2(O)C(O)=C3C(=O)c4c(cccc4OS(=O)(=O)C(F)(F)F)CC3CC12 (stereo partly shown) [O] | 22 to 43 (≈ 40.3 to 78.7 µM) | < 100 | < 100 | 0 to 21 | 22 to 43 (≈ 40.3 to 78.7 µM) | 44 to 64 (≈ 80.5 to 117 µM) | 0 to 21 | 22 to 43 (≈ 40.3 to 78.7 µM) |  |  | 44 to 64 (≈ 80.5 to 117 µM) |  | 44 to 64 (≈ 80.5 to 117 µM) |  |  |  |  |  |  |  |
